Experimental data from patent US10123904B2, “Preservative removal from eye drops” (University of Florida Research Foundation, Inc., priority 2014, dated 2018).
Structures can show the parent of a compound that is named as a salt. Where two headings read alike, the source gives them in different places. Marks after values point to notes of the source that are not given here. One block for each compound: values may come before it.

Assays:
[1] = Partition coefficient of drugs and BAK in macroporous pHEMA gel; assay type: physicochemical; conditions: for Partition coefficient in macroporous pHEMA gel: 250 mg gel soaked in 12 mL drug or BAK solution in PBS, 15 days, mean ± SD, n = 3; for Partition coefficient smaller than that of BAK: macroporous pHEMA gel
Description: As indicated above, the absorption percentage of hydrophilic drug is small, whereas a significant amount of hydrophobic drug is uptake by the macroporous pHEMA gel. The high affinity of hydrophobic drug to the gel can be determined by measuring the partition coefficient of the drug in the gel. To measure the partition coefficient, a piece of macroporous pHEMA gel of 250 mg was soaked in 12 mL of drug or BAK solution. After 15 days of soaking, the concentration of the drug or BAK solution was measured by using UV-Vis spectrophotometry. The drug or BAK concentration after soaking indicated the amount of drug or BAK in reference to the initial concentration is that absorbed into the gel. The partition coefficient of timolol and dorzolamide in macroporous pHEMA gel is roughly 15 times smaller than that of BAK, which is excellent separation efficiency. In contrast, the partition coefficients of latanoprost and BAK are pretty high and the separation efficiency of the gel for this mixture is poor.

[2] = BAK/drug removal by macroporous pHEMA gel plug packed in syringe, 10 consecutive passes; assay type: physicochemical; conditions: for Drug adsorption percentage: first pass through the 10th pass, macroporous pHEMA gel; for Percentage removed/absorbed after passing through plug: 2.5 mL through 5 mm macroporous pHEMA gel, 1 cm syringe
Description: The four drugs were dissolved in PBS and mixed with BAK individually. The macroporous pHEMA hydrogel prepared as above, was used as the BAK removal filter and packed into the syringe, as described above. The experimental setup is that of FIG. 3. […] The solution that passed through the filter plug was collected and the concentration of drug/BAK was determined by measuring the UV-Vis spectra. The measured UV spectrum was a linear combination of the testing drug and BAK and thus, the individual concentration of the drug and BAK could be determined by applying a least square fit method as described in Kim et al. Int. J.

[3] = BAK/drug removal by crushed macroporous pHEMA particles packed in syringe, passes separated by 24 hours; assay type: physicochemical
Description: Macroporous pHEMA hydrogel as prepared above was dried in the oven of 80° C. and crushed into particles and the particles packed into the syringe. Two pieces of filter papers were placed at the bottom of the syringe to prevent the packing particles from leaking out. Particles facilitate packing of a hydrogel into the neck of the eye drop bottle where packing is amenable to high-throughput industrial scale loading of gel filters. […] The process was timed using a stopwatch from the moment of placing the weight to the last drop entered the beaker. The weight of the collected solution in the beaker was measured to calculate the flow rate through the pHEMA particles. […] The UV spectrum of the collected solution was measured and the individual concentration of the drug and BAK were determined by a least square fit method as described in Kim et al., Int. J. […] After each measurement, the bottom outlet of the syringe was sealed with parafilm to prevent dehydration of the packed pHEMA particles in the manner equivalent to sealing the eye drop bottle with the cap after use.

[4] = Partition coefficient in pHEMA particles prepared using SR9035 as cross-linker; assay type: physicochemical; conditions: 100 mg particles soaked in 3.5 mL solution, 9 days
Description: The partition coefficients of timolol, CMC and BAK in pHEMA particles prepared using SR9035 as cross-linker was measured. pHEMA particles (100 mg) were soaked in 3.5 mL of timolol, CMC and BAK solution, which concentration was 0.08 mg/mL, 0.5% and 2.4 mg/mL, respectively. After 9 days of soaking, the concentration of the drug or BAK solution was measured by using UV-Vis spectrophotometry. The drug or BAK concentration after soaking indicated the amount of drug or BAK that absorbed into the gel relative to the initial concentration. The partition coefficient of timolol and CMC in pHEMA particles is much smaller than that of BAK, and should have excellent separation efficiency.

[5] = Timolol/BAK separation by UV-initiated pHEMA particles (EGDMA) in eye drop bottle prototype; assay type: physicochemical
Text: The sodium chloride promoted phase separation of the mixture. Small globules containing HEMA monomer and EGDMA was formed by continuously stirring the system at high rpm. […] In addition, the petri dish was covered to avoid water evaporation and oxygenation. After the polymerization, the pHEMA particles were separated from the solution by vacuum filtration method and washed with a large quantity of DI water to remove the unreacted monomers and other impurities. The particles were then dried in an oven of 80° C. […] The synthesized particles were packed in the prototype bottle and tested for their selectivity of separation of BAK from timolol. […] The drug/BAK solution was injected into the prototype bottle with a syringe. A clip was applied to the bottle to impose a constant pressure drop. […] The UV spectrum of the outlet solution was measured and the concentrations of the drug and BAK were determined by the least square fit method described in Kim et al., Int. J. Pharm., 2008, Apr. 2; 353(1-2):205-22. Five samples were successively removed through the plug.

[6] = Timolol/BAK separation by heat-initiated pHEMA particles in eye drop bottle prototype; assay type: physicochemical
Description: FIG. 24 indicates the percentages of BAK and timolol that were absorbed after the mixture in solution was passed through the heat-initiated pHEMA particles, shown in FIG. 18. […] The hydraulic permeability of the packing particles is 0.0459 Darcy which was measured as described, above. […] The size of the particles prepared by UV or heat-initiated polymerization is similar. […] The drug/BAK solution was injected into the prototype bottle with a syringe. […] The UV spectrum of the outlet solution was measured and the individual concentration of the drug and BAK was determined by a least square fit method as described in Kim et al., Int. J.

[7] = Timolol/BAK separation by pHEMA particles with SR454HP cross-linker in eye drop bottle prototype; assay type: physicochemical
Text: (§1) More rigid and larger size particles create a larger void space for fluid to flow and improved hydraulic permeability. […] This would be undesirable because the plug is drug at the time of the instillation of the first drop but then could be partially or fully hydrated for subsequent instillations, depending on whether the plug retains the fluid in the interim time between successive instillations. […] During the UV curing, the mixture was continuously stirred by a 35×6 mm magnetic stirring bar at 70 rpm. In addition, the petri dish was covered to avoid water evaporation and oxygenation. After polymerization, the pHEMA gel were separated from the solution by vacuum filtration method and washed with a large quantity of DI water to remove the unreacted monomers and other impurities. The pHEMA gel was then dried in an oven of 80° C. and crushed into particles in a mortar. Selectivity of the separation of BAK from timolol was measured. […] A constant pressure drop was applied across the packed particles to maintain a constant flow rate through the plug. […] The UV spectrum of the outlet solution was measured and the concentrations of the drug and BAK were determined by the least square fit method described in Kim et al., Int. J. […] The tip of the prototype bottle was sealed with parafilm. […] The step was repeated 10 times over a total of 10 days.

[8] = Timolol/BAK separation by pHEMA particles with SR9035 cross-linker in eye drop bottle prototype; assay type: physicochemical
Text: as §1

[9] = Latanoprost/BAK separation by crushed macroporous pHEMA particles in eye drop bottle prototype; assay type: physicochemical; conditions: all 10 runs over 10 days; 1.5 mL, 8 mm plug, particles pre-equilibrated with latanoprost
Description: The crushed macroporous pHEMA particles were prepared as described above. The particles were packed in the eye drop bottle prototype (FIG. 19) to test its selectivity of separation of BAK from latanoprost. The concentration of latanoprost and BAK prepared for the testing were both 0.03 mg/mL with PBS as the solvent. The drug/BAK solution was injected into the prototype bottle with a syringe. A clip was clipping on the bottle to create a constant pressure drop across the packing pHEMA particles of 8 mm in length. A volume of 1.5 mL of the drug/BAK solution was passed through the filter by squeezing the bottle. The UV spectrum of the outlet solution was measured and the individual concentration of the drug and BAK was determined by a least square fit method as described in Kim et al., Int. J. Pharm., 2008, Apr. 2; 353(1-2):205-22. The tip of the prototype bottle was sealed with parafilm. After 24 hours, another 1.5 mL drug/BAK solution was removed through the same filter and again to measure the concentrations of the drug and BAK. The step was repeated 10 times over a total of 10 days.

[10] = Binding of BAK and drugs to pHEMA matrix (general statement); assay type: physicochemical
[11] = Partition coefficient of BAK in pHEMA particles prepared by heat-initiated polymerization; assay type: physicochemical
[12] = 3 consecutive runs; hydrogel treated with 1% MAA
Description: The hydrogel was packed into the syringe as BAK removal filter and its separation efficiency of BAK from dexamethasone was tested in the same manner as the copolymer.

Partition coefficient in macroporous pHEMA gel [1]: 7.59 ± 0.56
Partition coefficient smaller than that of BAK [1]: roughly 15 times
Drug adsorption percentage [2]: about 5%
Compound: CCN[C@H]1C[C@H](C)S(=O)(=O)c2sc(S(N)(=O)=O)cc21 [Dorzolamide, dorzolamide hydrochloride]

Partition coefficient in macroporous pHEMA gel [1]: 90.18 ± 1.36
Percentage removed/absorbed after passing through plug ([2]; 10th pass): 30%
Percentage removed/absorbed after passing through plug ([2]; first run): 90%
Portion of drug absorbed ([3]; particles pre-equilibrated with the corresponding drug solution): only a very small portion
Compound: CC(C)OC(=O)CCC/C=C\C[C@@H]1[C@@H](CC[C@@H](O)CCc2ccccc2)[C@H](O)C[C@@H]1O [Latanoprost, latanoprost]

Partition coefficient in macroporous pHEMA gel [1]: 6.49 ± 0.37
Partition coefficient smaller than that of BAK [1]: roughly 15 times
Partition coefficient in pHEMA particles prepared by using SR9035 as cross-linker [4]: 5.59 ± 0.13^a
Drug adsorption percentage [2]: about 5%
Percentage removed ([5]; each of the 5 runs): about 1.5%
Percentage removed ([6]; 1st run): About 17%
Percentage removed ([6]; 10th run): about 3%
Percentage removed ([7]; 1st run): About 18%
Amount removed ([7]; 10th run): negligible
Percentage removed ([8]; 1st run): About 25%
Amount removed ([8]; after the 5th run): negligible
Compound: CC(C)(C)NC[C@H](O)COc1nsnc1N1CCOCC1 [Timolol, timolol maleate]

More lines, now with the values behind:

Compound: C[C@@H]1C[C@H]2[C@@H]3CCC4=CC(=O)C=C[C@]4(C)[C@@]3(F)[C@@H](O)C[C@]2(C)[C@@]1(O)C(=O)CO [Dexamethasone, dexamethasone]
Partition coefficient in macroporous pHEMA gel [1]: 33.53 ± 1.31

Compound: Benzalkonium chloride [BAK]
Partition coefficient in pHEMA particles prepared by using SR9035 as cross-linker [4]: ~300
Percentage removed/absorbed after passing through plug ([2]; 10th pass): 70-80%
Percentage removed/absorbed after passing through plug ([2]; first run): 100%
Percentage of BAK removed ([3]; all 10 passes, each separated by 24 hours, regardless of the drug in the solution): ~100%
Percentage of BAK removed [9]: ~100%
Percentage removed ([5]; 5th run, 1.5 mL, 8 mm plug): 30%
Percentage removed ([5]; first pass, 1.5 mL, 8 mm plug): Roughly 50%
Percentage removed ([6]; each of 10 passes carried out successively, 1.5 mL, 8 mm plug): ~100%
Percentage removed ([7]; after the 5th run): about 90%
Percentage removed ([7]; first 3-5th runs, 1.5 mL daily, 1.8 cm plug): ~100%
Percentage removed ([8]; 10th run): about 95%
Percentage removed ([8]; first 6th runs, 1.5 mL daily, 1.8 cm plug): ~100%
Adsorption time on pHEMA ([10]; compared with transit time through plug): < 3 s
Partition coefficient into the pHEMA matrix ([10]; depending on BAK concentration and structure of the pHEMA matrix): 100-500
Partition coefficient of BAK in pHEMA particles prepared by heat-initiated polymerization [11]: 200-250
Percentage of BAK removed [12]: ~100%
